Where no end group is shown, it is not given here.
Target: T1, Nox2 oxidase (COS-Nox2 lysate) (Homo sapiens, UniProt P14598)
T1 construct: host or cells: COS 7 cells, stably transfected; cell lysate used
T1 sequence (P14598 1-390): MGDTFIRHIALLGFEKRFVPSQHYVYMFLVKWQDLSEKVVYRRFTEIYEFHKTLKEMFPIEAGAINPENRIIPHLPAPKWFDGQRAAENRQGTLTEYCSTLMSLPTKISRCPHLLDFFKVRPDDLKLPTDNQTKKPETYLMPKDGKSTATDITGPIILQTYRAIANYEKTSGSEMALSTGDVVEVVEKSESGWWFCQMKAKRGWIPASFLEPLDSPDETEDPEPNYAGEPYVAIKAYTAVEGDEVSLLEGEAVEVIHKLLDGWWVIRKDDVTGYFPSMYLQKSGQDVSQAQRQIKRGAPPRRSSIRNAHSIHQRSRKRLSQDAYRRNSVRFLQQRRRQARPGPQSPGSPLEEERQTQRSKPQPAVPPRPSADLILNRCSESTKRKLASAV
Assay: EPR with spin probe CMH, O2- production in COS-Nox2 lysates
Assay type: biochemical
Settings: 10 μM peptide, vehicle 36330±2658
Experimental: To test this hypothesis, the inhibitory activity of Nox2ds was assessed in cell-free assays using reconstituted systems expressing either Nox1, 2 or 4 oxidase. Nox 2 oxidase was recapitulated by stably transfecting COS 7 cells with Nox2, p22phox, p47phox, and p67phox (aka COS-Nox2). Nox1 oxidase was obtained by transfecting COS 7 cells with Nox1, p22phox, NOXO1 and NOXA1 (COS-Nox1), and Nox 4 oxidase was regenerated by transfection of COS 7 cells with Nox4 and p22phox. […] Our new data support selectivity of Nox2ds peptide in differentiating the contribution of Nox2 vs. Nox1 and Nox4 NADPH oxidase and its potential clinical use in ameliorating cardiopulmonary diseases.
The spin probe 1-hydroxy-3-methoxycarbonyl-2,2,5,5-tetramethylpyrrolidine hydrochloride (CMH; Alexis Corp., San Diego, Calif., USA) was used to examine O2^− production in COS-Nox2 cell lysates using a Bruker eScan table-top EPR spectrometer (Bruker Biospin, USA). Superoxide production was measured in oxidase assay buffer (65 mM sodium phosphate buffer, pH 7.0, 1 mM EGTA, 10 μM FAD, 1 mM MgCl2, 2 mM NaN3) supplemented with 50 μM CMH. […] Analyses of the EPR spectra peak heights were used to quantify the amount of O2^− produced by the lysates and were compared with buffer-only control spectra or spectra in the presence of 10 μM Nox2ds, 10 μM Scrmb Nox2ds, or 150 U/ml SOD. […]

## CSTRVRRQL-NH2 [Nox2ds, CSTRVRRQL]
  CM radical intensity (EPR, O2- production): 18360±2666
